Assay results as given in ChEMBL document CHEMBL1138130, “Synthesis and antibacterial activity of 3-O-acyl-6-O-carbamoyl erythromycin A derivatives” (2006).
Converted amounts (≈) assume the structure as drawn.

How the values were obtained:
Format in all cases: functional
Haemophilus influenzae = test: Antibacterial activity against Haemophilus influenzae OC4882
Streptococcus pneumoniae [1] = test: Antibacterial activity against erm(B) ribosomal methylase gene containing Streptococcus pneumoniae OC4051
Streptococcus pneumoniae [2] = test: Antibacterial activity against Streptococcus pneumoniae OC9132
Streptococcus pneumoniae [3] = test: Antibacterial activity against Mef(A) efflux pump containing Streptococcus pneumoniae OC4438
Staphylococcus aureus = test: Antibacterial activity against Staphylococcus aureus OC4172

Compound | MIC (Haemophilus influenzae) | MIC (Streptococcus pneumoniae [1]) | MIC (Streptococcus pneumoniae [2]) | MIC (Streptococcus pneumoniae [3]) | MIC (Staphylococcus aureus)
CCC(=O)O[C@H]1[C@H](C)[C@@H](O[C@@H]2O[C@H](C)C[C@H](N(C)C)[C@H]2O)[C@](C)(OC(=O)NC/C=C/c2ccc(-c3ncccn3)cc2)C[C@@H](C)C(=O)[C@H](C)[C@H]2NC(=O)O[C@]2(C)[C@@H](CC)OC(=O)[C@@H]1C | 8 µg/mL (≈ 8.95 µM) | 0.25 µg/mL (≈ 0.28 µM) | 0.03 µg/mL (≈ 0.0336 µM) | 0.12 µg/mL (≈ 0.134 µM) | 0.5 µg/mL (≈ 0.559 µM)
CC[C@H]1OC(=O)[C@H](C)[C@@H](OC(=O)N(C)c2ccncc2)[C@H](C)[C@@H](O[C@@H]2O[C@H](C)C[C@H](N(C)C)[C@H]2O)[C@](C)(OC(=O)NC/C=C/c2ccc(-c3ncccn3)cc2)C[C@@H](C)C(=O)[C@H](C)[C@H]2NC(=O)O[C@@]21C | 8 µg/mL (≈ 8.23 µM) | 0.25 µg/mL (≈ 0.257 µM) | 0.06 µg/mL (≈ 0.0617 µM) | 0.25 µg/mL (≈ 0.257 µM) | 1 µg/mL (≈ 1.03 µM)
CC[C@H]1OC(=O)[C@H](C)C(=O)[C@H](C)[C@@H](O[C@@H]2O[C@H](C)C[C@H](N(C)C)[C@H]2O)[C@](C)(OC(=O)NC/C=C/c2ccc(-c3ncccn3)cc2)C[C@@H](C)C(=O)[C@H](C)[C@H]2NC(=O)O[C@@]21C | 4 µg/mL (≈ 4.78 µM) | 0.06 µg/mL (≈ 0.0718 µM) | 0.03 µg/mL (≈ 0.0359 µM) | 0.25 µg/mL (≈ 0.299 µM) | 0.12 µg/mL (≈ 0.144 µM)
CC[C@H]1OC(=O)[C@H](C)[C@@H](OC(=O)c2cccnc2)[C@H](C)[C@@H](O[C@@H]2O[C@H](C)C[C@H](N(C)C)[C@H]2O)[C@](C)(OC(=O)NC/C=C/c2ccc(-c3ncccn3)cc2)C[C@@H](C)C(=O)[C@H](C)[C@H]2NC(=O)O[C@@]21C | 16 µg/mL (≈ 17 µM) | 4 µg/mL (≈ 4.24 µM) | 0.06 µg/mL (≈ 0.0636 µM) | 0.25 µg/mL (≈ 0.265 µM) | 0.5 µg/mL (≈ 0.53 µM)
CC[C@H]1OC(=O)[C@H](C)[C@@H](OC(=O)CCc2cccnc2)[C@H](C)[C@@H](O[C@@H]2O[C@H](C)C[C@H](N(C)C)[C@H]2O)[C@](C)(OC(=O)NC/C=C/c2ccc(-c3ncccn3)cc2)C[C@@H](C)C(=O)[C@H](C)[C@H]2NC(=O)O[C@@]21C | 8 µg/mL (≈ 8.24 µM) | 2 µg/mL (≈ 2.06 µM) | 0.03 µg/mL (≈ 0.0309 µM) | 0.06 µg/mL (≈ 0.0618 µM) | 0.25 µg/mL (≈ 0.257 µM)
CC[C@H]1OC(=O)[C@H](C)[C@@H](OC(=O)Nc2ccc(OC)cc2)[C@H](C)[C@@H](O[C@@H]2O[C@H](C)C[C@H](N(C)C)[C@H]2O)[C@](C)(OC(=O)NC/C=C/c2ccc(-c3ncccn3)cc2)C[C@@H](C)C(=O)[C@H](C)[C@H]2NC(=O)O[C@@]21C | 16 µg/mL (≈ 16.2 µM) | 4 µg/mL (≈ 4.05 µM) | 0.12 µg/mL (≈ 0.122 µM) | 0.25 µg/mL (≈ 0.253 µM) | 1 µg/mL (≈ 1.01 µM)

More lines, now with the values ahead:

MIC (Haemophilus influenzae) | MIC (Streptococcus pneumoniae [1]) | MIC (Streptococcus pneumoniae [2]) | MIC (Streptococcus pneumoniae [3]) | MIC (Staphylococcus aureus) | Compound
8 µg/mL (≈ 8.81 µM) | 0.12 µg/mL (≈ 0.132 µM) | 0.06 µg/mL (≈ 0.0661 µM) | 0.12 µg/mL (≈ 0.132 µM) | 0.5 µg/mL (≈ 0.551 µM) | CC[C@H]1OC(=O)[C@H](C)[C@@H](OC(=O)C(C)C)[C@H](C)[C@@H](O[C@@H]2O[C@H](C)C[C@H](N(C)C)[C@H]2O)[C@](C)(OC(=O)NC/C=C/c2ccc(-c3ncccn3)cc2)C[C@@H](C)C(=O)[C@H](C)[C@H]2NC(=O)O[C@@]21C
4 µg/mL (≈ 4.3 µM) | 0.12 µg/mL (≈ 0.129 µM) | 0.06 µg/mL (≈ 0.0645 µM) | 0.06 µg/mL (≈ 0.0645 µM) | 0.5 µg/mL (≈ 0.538 µM) | CC[C@H]1OC(=O)[C@H](C)[C@@H](OC(=O)Cc2cccnc2)[C@H](C)[C@@H](O[C@@H]2O[C@H](C)C[C@H](N(C)C)[C@H]2O)[C@](C)(OC(=O)NC/C=C/c2cnc3ccccc3c2)C[C@@H](C)C(=O)[C@H](C)[C@H]2NC(=O)O[C@@]21C
4 µg/mL (≈ 4.67 µM) | 0.25 µg/mL (≈ 0.292 µM) | 0.06 µg/mL (≈ 0.07 µM) | 0.12 µg/mL (≈ 0.14 µM) | 0.5 µg/mL (≈ 0.583 µM) | CC[C@H]1OC(=O)[C@H](C)[C@@H](OC(=O)C(C)C)[C@H](C)[C@@H](O[C@@H]2O[C@H](C)C[C@H](N(C)C)[C@H]2O)[C@](C)(OC(=O)NC/C=C/C=C/c2cccnc2)C[C@@H](C)C(=O)[C@H](C)[C@H]2NC(=O)O[C@@]21C
4 µg/mL (≈ 4.06 µM) | 0.5 µg/mL (≈ 0.507 µM) | 0.03 µg/mL (≈ 0.0304 µM) | 0.06 µg/mL (≈ 0.0608 µM) | 0.25 µg/mL (≈ 0.254 µM) | CC[C@H]1OC(=O)[C@H](C)[C@@H](OC(=O)N(C)Cc2cccnc2)[C@H](C)[C@@H](O[C@@H]2O[C@H](C)C[C@H](N(C)C)[C@H]2O)[C@](C)(OC(=O)NC/C=C/c2ccc(-c3ncccn3)cc2)C[C@@H](C)C(=O)[C@H](C)[C@H]2NC(=O)O[C@@]21C
2 µg/mL (≈ 2.21 µM) | 0.12 µg/mL (≈ 0.132 µM) | 0.03 µg/mL (≈ 0.0331 µM) | 0.12 µg/mL (≈ 0.132 µM) | 0.5 µg/mL (≈ 0.552 µM) | CC[C@H]1OC(=O)[C@H](C)[C@@H](OC(=O)Cc2cccnc2)[C@H](C)[C@@H](O[C@@H]2O[C@H](C)C[C@H](N(C)C)[C@H]2O)[C@](C)(OC(=O)NC/C=C/C=C/c2cccnc2)C[C@@H](C)C(=O)[C@H](C)[C@H]2NC(=O)O[C@@]21C
4 µg/mL (≈ 4.18 µM) | 0.25 µg/mL (≈ 0.261 µM) | 0.03 µg/mL (≈ 0.0313 µM) | 0.12 µg/mL (≈ 0.125 µM) | 0.25 µg/mL (≈ 0.261 µM) | CC[C@H]1OC(=O)[C@H](C)[C@@H](OC(=O)Cc2ccncc2)[C@H](C)[C@@H](O[C@@H]2O[C@H](C)C[C@H](N(C)C)[C@H]2O)[C@](C)(OC(=O)NC/C=C/c2ccc(-c3ncccn3)cc2)C[C@@H](C)C(=O)[C@H](C)[C@H]2NC(=O)O[C@@]21C
2 µg/mL (≈ 2.17 µM) | 0.25 µg/mL (≈ 0.271 µM) | 0.06 µg/mL (≈ 0.0651 µM) | 0.25 µg/mL (≈ 0.271 µM) | 0.5 µg/mL (≈ 0.543 µM) | CC[C@H]1OC(=O)[C@H](C)[C@@H](OC(=O)Cc2cccnc2)[C@H](C)[C@@H](O[C@@H]2O[C@H](C)C[C@H](N(C)C)[C@H]2O)[C@](C)(OC(=O)NC/C=C/c2cnc(C3CC3)nc2)C[C@@H](C)C(=O)[C@H](C)[C@H]2NC(=O)O[C@@]21C
